pEC50: −log10 of the molar value.
tested on: HBV; test: Anti-HBV activity in vitro: quantification of extracellular HBV DNA by direct qPCR in HepAD38 cells; format: cell-based; details: Hepatitis B virus, doxycycline-free medium, 96 hours at 37°C, 8-point dose-response curve, read-out: HBV inh EC50
Excerpt: HepAD38 cell line (Ladner et al., Antimicrob Agents Chemother, 1997, 41, 1715-20) was used for HBV inhibition assays. HepAD38 is a subclone, derived from hepatoblastoma cell line HepG2 (ATCC® Number: HB-8065™), that expresses HBV genome under the transcriptional control of a tetracycline-responsive promoter in a TET-OFF system: addition of doxycycline, an antibiotic belonging to the class of tetracycline, suppresses HBV replication, while its removal switches on the process allowing HBV viral particles release in the cell supernatant. HepAD38 cell line is maintained in DMEM/F12, supplemented with 10% of fetal bovine serum, 1% of glutamine, 1% of penicillin/streptomycin, 0.4 mg/ml G418 and 0,3 ug/ml tetracycline. For the HBV inhibition assay, doxycycline-free medium is used in order to allow virion production.
HBV inhibition activity in vitro was performed in 96 multiwell plates. During the initial (primary) screening, compounds were first tested in triplicates at concentrations of 0.02 µM, 0.1µM, 0.5µM and 1µM. For selected compounds, an 8-point dose-response curve was obtained using 1:2 serial dilutions (starting from 0.01µM, 0.1µM, 0.4µM or 5 µM, depending on the degree of inhibition observed during the primary screening). From the dose-response curves, half maximal effective concentration (EC50) could be calculated (see also below).
In more detail, compounds - typically dissolved in DMSO stock solutions - were diluted to 2x the final desired concentration in 100 µl of the above medium (without doxycycline) and plated in three replicates in the 96-well plates.
Simultaneously, HepAD38 cells - extensively pre-washed in doxycycline-free medium in order to induce HBV production - were suspended at 2^∗10^4 cells in 100 µl of doxycycline-free medium and added to each well of the plate, to yield a final assay volume of 200 µl DMSO - used for stock solutions and compounds dilutions - which was always present in the assays at a final concentration of 0.5%.
Plates were then incubated 96 hours at 37°C and then subjected to cell viability assays and extracellular HBV quantification, in order to evaluate both the cytotoxic potential and the antiviral activity of compounds. Cytotoxicity was assessed by a commercial fluorescence assay that measures the metabolic activity of cells, directly related to cell viability (Cell Titer Blue, Promega). Anti-HBV activity was evaluated by quantification of extracellular HBV DNA with direct qPCR. In particular, supernatant was collected and centrifuged for cell debris clarification, viral DNA was extracted from virions by addition of lysis buffer (1 mM 1,4-dithiothreitol, 0.2% sodium dodecyl sulphate) and incubated at 95°C for 10 min. Samples were then diluted 1:40 and real time PCR amplification was performed with SYBR green assay (Power SYBR™ Green PCR Master Mix-Thermo Fisher Scientific) and specific HBV primer (HBV-DF:5'-[…]-3' (SEQ ID No. 1), HBV-DR:5'-[…]-3' (SEQ ID No. 2)).
Antiviral activity data for each compound are reported as EC50 value (see Table 1 legend). Excel and Graphpad Prism programs are typically used for data elaboration and EC50 calculation.

Row | SMILES | pEC50
1 | Cn1cc2c(c1C(=O)Nc1ccc(F)c(Cl)c1)OC[C@]1(CCN(C(=O)C(=O)NCC(F)(F)F)C1)NS2(=O)=O [Example E20, (R)-N-(3-chloro-4-fluorophenyl)-7'-methyl-1-(2-oxo-2-((2,2,2-trifluoroethyl)amino)acetyl)-2'H,4'H,7'H-spiro[pyrrolidine-3,3'-pyrrolo[3,4-b][1,4,5]oxathiazepine]-6'-carboxamide 1',1'-dioxide] | > 6.30
2 | Cn1cc2c(c1C(=O)Nc1ccc(F)c(Cl)c1)OCC1(CCN(C(=O)C(=O)NCC(F)(F)F)CC1)NS2(=O)=O [Example E13, N-(3-chloro-4-fluorophenyl)-7'-methyl-1-(2-oxo-2-((2,2,2-trifluoroethyl)amino)acetyl)-2'H,4'H,7'H-spiro[piperidine-4,3'-pyrrolo[3,4-b][1,4,5]oxathiazepine]-6'-carboxamide 1',1'-dioxide] | > 6.30
3 | C[C@@H](NC(=O)C(=O)N1CCC2(CC1)COc1c(cn(C)c1C(=O)Nc1ccc(F)c(Cl)c1)S(=O)(=O)N2)C(F)(F)F [Example E7, (R)-N-(3-chloro-4-fluorophenyl)-7'-methyl-1-(2-oxo-2-((1,1,1-trifluoropropan-2-yl)amino)acetyl)-2'H,4'H,7'H-spiro[piperidine-4,3'-pyrrolo[3,4-b][1,4,5]oxathiazepine]-6'-carboxamide 1',1'-dioxide] | > 6.30
4 | C[C@@H](NC(=O)C(=O)N1CCC2(CC1)COc1c(cn(C)c1C(=O)Nc1ccc(F)c(C(F)F)c1)S(=O)(=O)N2)C(F)(F)F [Example E8, (R)-N-(3-(difluoromethyl)-4-fluorophenyl)-7'-methyl-1-(2-oxo-2-((1,1,1-trifluoropropan-2-yl)amino)acetyl)-2'H,4'H,7'H-spiro[piperidine-4,3'-pyrrolo[3,4-b][1,4,5]oxathiazepine]-6'-carboxamide 1',1'-dioxide] | > 6.30
5 | Cn1cc2c(c1C(=O)Nc1ccc(F)c(C(F)F)c1)OC[C@@]1(CCN(C(=O)C(=O)NCC(F)(F)F)C1)NS2(=O)=O [Example E27, (S)-N-(3-(difluoromethyl)-4-fluorophenyl)-7'-methyl-1-(2-oxo-2-((2,2,2-trifluoroethyl)amino)acetyl)-2'H,4'H,7'H-spiro[pyrrolidine-3,3'-pyrrolo[3,4-b][1,4,5]oxathiazepine]-6'-carboxamide 1',1'-dioxide] | > 6.30
6 | C[C@H](NC(=O)C(=O)N1CC2(COc3c(cn(C)c3C(=O)Nc3ccc(F)c(C(F)F)c3)S(=O)(=O)N2)C1)C(F)(F)F [Example E18, (S)-N-(3-(difluoromethyl)-4-fluorophenyl)-7'-methyl-1-(2-oxo-2-((1,1,1-trifluoropropan-2-yl)amino)acetyl)-2'H,4'H,7'H-spiro[azetidine-3,3'-pyrrolo[3,4-b][1,4,5]oxathiazepine]-6'-carboxamide 1',1'-dioxide] | > 6.30
7 | Cn1cc2c(c1C(=O)Nc1ccc(F)c(Cl)c1)OCC1(CN(C(=O)C(=O)N3CC(F)(F)C3)C1)NS2(=O)=O [Example E17, N-(3-chloro-4-fluorophenyl)-1-(2-(3,3-difluoroazetidin-1-yl)-2-oxoacetyl)-7'-methyl-2'H,4'H,7'H-spiro[azetidine-3,3'-pyrrolo[3,4-b][1,4,5]oxathiazepine]-6'-carboxamide 1',1'-dioxide] | > 6.30
8 | C[C@H](NC(=O)C(=O)N1CC[C@]2(COc3c(cn(C)c3C(=O)Nc3ccc(F)c(Cl)c3)S(=O)(=O)N2)C1)C(F)(F)F [Example E22, (R)-N-(3-chloro-4-fluorophenyl)-7'-methyl-1-(2-oxo-2-(((S)-1,1,1-trifluoropropan-2-yl)amino)acetyl)-2'H,4'H,7'H-spiro[pyrrolidine-3,3'-pyrrolo[3,4-b][1,4,5]oxathiazepine]-6'-carboxamide 1',1'-dioxide] | > 6.30
9 | C[C@@H](NC(=O)C(=O)N1CCC2(CC1)COc1c(c(Cl)n(C)c1C(=O)Nc1ccc(F)c(Cl)c1)S(=O)(=O)N2)C(F)(F)F [Example E30, (R)-8'-chloro-N-(3-chloro-4-fluorophenyl)-7'-methyl-1-(2-oxo-2-((1,1,1-trifluoropropan-2-yl)amino)acetyl)-2'H,4'H,7'H-spiro[piperidine-4,3'-pyrrolo[3,4-b][1,4,5]oxathiazepine]-6'-carboxamide 1',1'-dioxide] | > 6.30
10 | C[C@H](NC(=O)C(=O)N1CCC2(CC1)COc1c(cn(C)c1C(=O)Nc1ccc(F)c(C(F)F)c1)S(=O)(=O)N2)C(F)(F)F [Example E14, (S)-N-(3-(difluoromethyl)-4-fluorophenyl)-7'-methyl-1-(2-oxo-2-((1,1,1-trifluoropropan-2-yl)amino)acetyl)-2'H,4'H,7'H-spiro[piperidine-4,3'-pyrrolo[3,4-b][1,4,5]oxathiazepine]-6'-carboxamide 1',1'-dioxide] | > 6.30
11 | Cn1cc2c(c1C(=O)Nc1ccc(F)c(C(F)F)c1)OC[C@]1(CCN(C(=O)C(=O)NC(C)(C)C(F)(F)F)C1)NS2(=O)=O [Example E24, (R)-N-(3-(difluoromethyl)-4-fluorophenyl)-7'-methyl-1-(2-oxo-2-((1,1,1-trifluoro-2-methylpropan-2-yl)amino)acetyl)-2'H,4'H,7'H-spiro[pyrrolidine-3,3'-pyrrolo[3,4-b][1,4,5]oxathiazepine]-6'-carboxamide 1',1'-dioxide] | > 6.30
12 | C[C@@H](NC(=O)C(=O)N1CC[C@@]2(COc3c(cn(C)c3C(=O)Nc3ccc(F)c(Cl)c3)S(=O)(=O)N2)C1)C(F)(F)F [Example E5, (S)-N-(3-chloro-4-fluorophenyl)-7'-methyl-1-(2-oxo-2-(((R)-1,1,1-trifluoropropan-2-yl)amino)acetyl)-2'H,4'H,7'H-spiro[pyrrolidine-3,3'-pyrrolo[3,4-b][1,4,5]oxathiazepine]-6'-carboxamide 1',1'-dioxide] | > 6.30
13 | C[C@H](NC(=O)C(=O)N1CCC2(CC1)COc1c(cn(C)c1C(=O)Nc1ccc(F)c(Cl)c1)S(=O)(=O)N2)C(F)(F)F [Example E12, (S)-N-(3-chloro-4-fluorophenyl)-7'-methyl-1-(2-oxo-2-((1,1,1-trifluoropropan-2-yl)amino)acetyl)-2'H,4'H,7'H-spiro[piperidine-4,3'-pyrrolo[3,4-b][1,4,5]oxathiazepine]-6'-carboxamide 1',1'-dioxide] | > 6.30
14 | C[C@@H](NC(=O)C(=O)N1CCC2(COc3c(c(Cl)n(C)c3C(=O)Nc3ccc(F)c(F)c3)S(=O)(=O)N2)C1)C(F)(F)F (stereo partly drawn) [Example E3, 8'-chloro-N-(3,4-difluorophenyl)-7'-methyl-1-(2-oxo-2-(((R)-1,1,1-trifluoropropan-2-yl)amino)acetyl)-2'H,4'H,7'H-spiro[pyrrolidine-3,3'-pyrrolo[3,4-b][1,4,5]oxathiazepine]-6'-carboxamide 1',1'-dioxide] | > 6.30
15 | C[C@@H](NC(=O)C(=O)N1CC[C@]2(COc3c(c(Cl)n(C)c3C(=O)Nc3ccc(F)c(Cl)c3)S(=O)(=O)N2)C1)C(F)(F)F (stereo in doubt) [Example E33, (R)-8'-chloro-N-(3-chloro-4-fluorophenyl)-7'-methyl-1-(2-oxo-2-(((R)-1,1,1-trifluoropropan-2-yl)amino)acetyl)-2'H,4'H,7'H-spiro[pyrrolidine-3,3'-pyrrolo[3,4-b][1,4,5]oxathiazepine]-6'-carboxamide 1',1'-dioxide] | > 6.30
16 | C[C@@H](NC(=O)C(=O)N1CC2(COc3c(c(Cl)n(C)c3C(=O)Nc3ccc(F)c(C(F)F)c3)S(=O)(=O)N2)C1)C(F)(F)F [Example E32, (R)-8'-chloro-N-(3-(difluoromethyl)-4-fluorophenyl)-7'-methyl-1-(2-oxo-2-((1,1,1-trifluoropropan-2-yl)amino)acetyl)-2'H,4'H,7'H-spiro[azetidine-3,3'-pyrrolo[3,4-b][1,4,5]oxathiazepine]-6'-carboxamide 1',1'-dioxide] | > 6.30
17 | C[C@@H](NC(=O)C(=O)N1CC2(COc3c(cn(C)c3C(=O)Nc3ccc(F)c(C(F)F)c3)S(=O)(=O)N2)C1)C(F)(F)F [Example E10, (R)-N-(3-(difluoromethyl)-4-fluorophenyl)-7'-methyl-1-(2-oxo-2-((1,1,1-trifluoropropan-2-yl)amino)acetyl)-2'H,4'H,7'H-spiro[azetidine-3,3'-pyrrolo[3,4-b][1,4,5]oxathiazepine]-6'-carboxamide 1',1'-dioxide] | > 6.30

— patent EP3985010A1, “SPIROCYCLIC INHIBITORS OF HEPATITIS B VIRUS” (priority 2020, dated 2022)
